Source: US7851437B2, “Drug conjugates and their use for treating cancer, an autoimmune disease or an infectious disease” (Seattle Genetics Inc., priority 2002, dated 2010)
*1 amine or outer side, *2 acyl side, *3 side chain or, on linkers, in order; H or OH if unused. Where a SMILES comes first, the peptide text is derived from it. [ ]: non-standard residue; d: D form. The star is where a group is joined. Dolaproine = CO[C@@H]([C@@H]1CCCN1)[C@@H](C)C(=O)O; Phenylenediamine(1,4) = c1cc(N[*:2])ccc1N[*:1]; Dil = CC[C@H](C)[C@H](NC)[C@@H](CC(=O)O)OC; NMe2Val = CC(C)[C@@H](C(=O)*)N(C)C; X1 = C[C@@H](N*)[C@@H](O)c1ccccc1; NMeV = CN[C@H](C(=O)O)C(C)C

System: H3396 human breast carcinoma cells (cBR96 antigen positive, cAC10 antigen negative)
Assay: In vitro cytotoxicity, Alamar Blue assay, H3396 cells
Assay type: cell-based
Conditions: exposure for 1 hour
From the text: The cell lines used were H3396 human breast carcinoma (cBR96 antigen positive, cAC10 antigen negative), HCT-116 human colorectal carcinoma (cBR96 and cAC10 antigen negative), and Karpas human anaplastic large cell lymphoma (ALCL) (cBR96 antigen negative, cAC10 antigen positive). These cell lines are available from ATCC. CD30-positive Hodgkin's Disease (HD) cell line L540 and the ALCL cell line Karpas 299 were obtained from the Deutsche Sammlung von Mikroorganism and Zellkulturen GmbH (Braunschweig, Germany). L540cy, a derivative of the HD line L540 adapted to xenograft growth, was provided by Dr. Phil Thorpe (U of Texas Southwestern Medical Center, Dallas, Tex.). Cell lines were grown in RPMI-1640 media (Life Technologies Inc., Gaithersburg, Md.) supplemented with 10% fetal bovine serum.H3396 cells in RPMI containing 10% fetal bovine serum (referred to as medium) were plated in 96-well plates at approximately 3,000-10,000 cells/well and allowed to adhere overnight. The non-adherent Karpas cell line was plated out at approximately 10,000 cells/well at the initiation of the assay. Various concentrations of illustrative Compounds of the Invention in medium were added in triplicate, and after the times indicated IN FIGS. 1-7, the medium was removed, and the cells were washed with fresh medium three times. After a 96 hour incubation period at 37° C., Alamar Blue was added and cell viability was determined 4 hours later as described by Ahmed S A, Gogal R M Jr, Walsh J E., J. Immunol. Methods, 170, 211-224, 1994.

[1] = concentrations between 0.01 mM and 1.0 mM

Row | Compound | cytotoxicity (FIG. 1) [1] | cytotoxicity (FIG. 1) (concentrations of up to 0.01 mM)
1 | CC[C@H](C)[C@@H]([C@@H](CC(=O)N1CCC[C@H]1[C@H](OC)[C@@H](C)C(=O)N[C@H](C)[C@@H](O)c1ccccc1)OC)N(C)C(=O)[C@@H](NC(=O)[C@@H](NC)C(C)C)C(C)C [Compound 49] (H-[NMeV]V[Dil][Dolaproine]-X1) | substantially equal cytotoxicity | –
2 | CC[C@H](C)[C@@H]([C@@H](CC(=O)N1CCC[C@H]1[C@H](OC)[C@@H](C)C(=O)N[C@@H](Cc1ccccc1)C(=O)Nc1ccc(N)cc1)OC)N(C)C(=O)[C@@H](NC(=O)[C@H](C(C)C)N(C)C)C(C)C [Compound 53] (NMe2Val-V[Dil][Dolaproine]F-{Phenylenediamine(1,4)}) | substantially equal cytotoxicity | more cytotoxic than Compound 49
